Measurements as given in the NIST ThermoML archive (doi:10.1016/j.jct.2014.02.012).
Numbers after ± are expanded uncertainties.

How the values were obtained:
[1] = 100 kPa, Liquid mixture 1, Wilhelmy plate method
[2] = 298.15 K; for surface tension liquid-gas: Wilhelmy plate method; for viscosity / mass density: 101.33 kPa, Liquid; for viscosity: Capillary tube (Ostwald / Ubbelohde) method; for mass density: Vibrating tube method

Row | surface tension liquid-gas [2] [mN/m] | viscosity [2] [mPa·s] | Structure (SMILES) | interfacial tension ([1]; 298.15 K) [mN/m] | interfacial tension ([1]; 348.15 K) [mN/m] | mass density [2] [kg/m3]
1 | – | – | CCCCCCCCCCCC [dodecane] + O | 52.2 ± 0.3 | 49.6 ± 0.3 | –
2 | – | – | CCCCCCCCCCCCCC[P+](CCCCCC)(CCCCCC)CCCCCC.O=S(=O)([N-]S(=O)(=O)C(F)(F)F)C(F)(F)F + O | 27.1 ± 0.2 | 25.6 ± 0.2 | –
3 | 24.9 ± 0.2 | 1.356 ± 0.029 | CCCCCCCCCCCC [dodecane] | – | – | 745.27 ± 0.24
4 | 72 ± 0.2 | 0.904 ± 0.019 | O [water] | – | – | –
5 | – | – | CCCCCCCCCCCCCC[P+](CCCCCC)(CCCCCC)CCCCCC.O=S(=O)([N-]S(=O)(=O)C(F)(F)F)C(F)(F)F + CCCCCCCCCCCC | 0.9 ± 0.2 | 0.6 ± 0.2 | –

Row | Structure (SMILES) | surface tension liquid-gas [2] [mN/m] | viscosity [2] [mPa·s] | interfacial tension ([1]; 298.15 K) [mN/m] | interfacial tension ([1]; 348.15 K) [mN/m] | mass density [2] [kg/m3]
6 | CCCCCCCCCCCCCC[P+](CCCCCC)(CCCCCC)CCCCCC.O=S(=O)([N-]S(=O)(=O)C(F)(F)F)C(F)(F)F | 30.9 ± 0.3 | 311.4 ± 11 | – | – | 1065.5 ± 0.28
